1 substance from patent US10746739B2, “Identification of novel diagnostics and therapeutics by modulating RhoH” (Leukemia Therapeutics, LLC, priority 2015, dated 2020) can be followed below.

The test has as its system pre-existing HCL tumors (JOK-Luc). The test is described as follows: Intraperitoneal JOK-Luc HCL xenograft treated with antibody, luminescence imaging. The format is in vivo. The note with it: JOK-Luc injected into peritoneum of Hsd:Athymic Nude-Foxn1nu mice; antibody intraperitoneally at day 4 and day 6; imaged at day 7; compared with control IgG antibody. The protocol: JOK-1 cells were stably transfected with the plasmid pGL4.5[Luc2/CMV/Neo] that contains the firefly luciferase gene under control of the constitutive gene promoter of cytomegalovirus. This luciferase cell line was then injected into the peritoneum of mice of the strain Hsd:Athymic Nude-Foxn1^nu. After 3 days, mice were subjected to whole body imaging following intravenous injection of D-Luciferin. Those mice where tumor was detected were intraperitoneally injected at day 4 and day 6 with the anti-CD38 antibody SAR650984 or an IgG control antibody. At day 7, mice were again imaged. Depicted are superimposed luminescence and X-ray images of three mice injected with SAR650984 (CD38) and three injected with the control antibody (Ctrl).
Experiments performed with JOK-CD38-KO indicate that targeting CD38 expression in HCL may have therapeutic efficacy. This was tested using the parent of JOK-CD38-KO where CD38 expression remained intact. The parental line was engineered such that it constitutively produced luciferase and, therefore, could be visualized by luminescence in the presence of luciferin. […]
The role of CD38 in HCL was assessed using 5×10^6 of the cell line pools JOK-CD38-WT or JOK-CD38-KO injected subcutaneously into male or female mice that were 6-8 weeks old and of the strain NOD.Cg-Prkdc^scid IL2rγ^tm1Wj1/SzJ (Jackson Laboratory, Bar Harbor, Me., USA). […]

Turning to “SAR650984: humanized anti-CD38 antibody SAR650984 (Sanofi Oncology)”, the “effect on pre-existing HCL tumors by luminescence imaging” value is on record as “tended to be reduced”.
